Counter-ions that a name gives are not always drawn. Like-named read-outs stand apart in the source and are kept apart here. Blank lines part the entries; values can stand above or below the molecule they belong to.
Columns and labels:
[1] = test system: gastric acid secretion; assay: gastric secretion in the rat, modified Shay procedure of pylorus ligation; format: in vivo; conditions: intraduodenal, 4 h, i.d., four hours after ligation, read-out: % Inhibition (of acid output)
Protocol: The procedure for testing gastric secretion in the rat, a modification of the procedure of Shay et al., Gastroenterology, 26, 906-13 (1954) is carried out as follows: Male Charles River rats weighing 200-300 grams are deprived of food but not water for 24 hours prior to use. Water is, however, withheld during the experiment. The rats are weighed, anesthetized, and the pylorus ligated according to the method of Shay et al. Treatment or vehicle control is then administered interduodenally (i.d.). Rats are housed 2/cage and sacrificed with CO2 four hours after ligation. The stomachs are removed, rinsed, and contents emptied into a graduated centrifuge tube. The tubes are centrifuged for 20 minutes at 2,000 RPM and the volume of gastric juice recorded. Any samples obviously contaminated by feces, food or hemolysis are eliminated. An aliquot of each is frozen for later analysis of Na^+, K^+ and Cl^- concentration. The pH is measured and 1 ml. of gastric juice is titrated with 0.1N NaOH to a pH of 7.0-7.4. Titratable acid output is calculated in microequivalents and the percent inhibition of acid output is calculated as follows: [formula]

[2] = target: H2 histamine receptors (Cavia porcellus, UniProt P47747); assay: cell-based; set-up: species or system guinea pig; conditions: vs histamine dose-response, 32° C., pH 7.4
Chain of H2 histamine receptors (P47747 whole entry): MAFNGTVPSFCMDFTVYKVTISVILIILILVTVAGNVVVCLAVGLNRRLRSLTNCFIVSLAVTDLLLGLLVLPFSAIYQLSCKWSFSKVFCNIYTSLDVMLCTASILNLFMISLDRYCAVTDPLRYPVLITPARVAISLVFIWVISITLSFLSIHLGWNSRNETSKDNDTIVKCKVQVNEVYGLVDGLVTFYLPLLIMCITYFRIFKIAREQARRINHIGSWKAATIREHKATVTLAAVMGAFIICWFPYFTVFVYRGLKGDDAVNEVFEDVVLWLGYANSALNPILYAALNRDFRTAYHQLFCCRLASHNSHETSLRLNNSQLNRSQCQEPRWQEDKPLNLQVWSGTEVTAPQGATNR
Protocol: The guinea pig heart atrium test is carried out as follows:
A guinea pig right atrium is suspended at 1 g. tension (isometric) in a thermostatically controlled (32° C.) tissue bath (10 ml) containing oxygenated (95% O2 ; 5% CO2) Krebs-Haenseleit buffer (pH 7.4). The tissue is allowed to stabilize over 1 hour. Individual contractions are recorded with a force-displacement transducer through a strain gauge coupler. A control dose-response curve to histamine in the above described tissue bath is obtained after which the tissue is washed 3 times and allowed to re-equilibrate to basal rate. The test compound is added to the tissue bath at the desired final concentration. Thirty minutes after addition of the compound, a fresh histamine dose response curve is again obtained. Then the response to histamine in the presence of antagonist is compared to the histamine control response. This procedure is repeated, using fresh tissues, for each concentration of antagonist tested. […] Cimetidine is used as the standard for this test.

[3] = marked *, result of only one experiment, read-out: KB value
[4] = 30 min after addition, results of three experiments, read-out: pA2 Value (apparent dissociation constant of the H2 antagonist) (converted)
[5] = 30 min after addition, results of three experiments

Compound: CCCCN(C)Cc1cccc(OCCCNC2=NS(=O)(=O)c3ccccc32)c1 [Example 36, N-[3-[3-[(butylmethylamino)methyl]phenoxy]propyl]-1,2-benzisothiazol-3-amine 1,1-dioxide]
inhibition in vivo at 32 mg/kg [1]: 84%
Kb [2, 3]: 48 nM

Compound: O=S1(=O)N=C(NCCCOc2cccc(CNC3CCCC3)c2)c2ccccc21 [Example 28, N-[3-[3-[(cyclopentylamino)methyl]phenoxy]propyl]-1,2-benzisothiazol-3-amine 1,1-dioxide, hydrochloride]
inhibition in vivo at 16 mg/kg [1]: 75%
inhibition in vivo at 32 mg/kg [1]: 49%
Kb [2, 4]: 25.1 nM

Compound: O=S1(=O)N=C(NCCCOc2cccc(CN3CCSCC3)c2)c2ccccc21 [Example 23, N-[3-[3-[(4-thiomorpholinyl)methyl]phenoxy]propyl]-1,2-benzisothiazol-3-amine 1,1-dioxide, hydrochloride]
Kb [2, 4]: 25.1 nM

Compound: Cc1ccc2c(c1)C(NCCCOc1cccc(CN3CCCCC3)c1)=NS2(=O)=O [Example 10, N-[3-[3-[(1-piperidinyl)methyl]phenoxy]propyl]-5-methyl-1,2-benzisothiazol-3-amine 1,1-dioxide]
Kb [2, 4]: 50.1 nM

Compound: O=S1(=O)N=C(NCCCOc2cccc(CNC3CCCCC3)c2)c2ccccc21 [Example 27, N-[3-[3-[(cyclohexylamino)methyl]phenoxy]propyl]-1,2-benzisothiazol-3-amine 1,1-dioxide, hydrochloride]
Kb [2, 4]: 44.7 nM

Compound: O=S1(=O)N=C(NCCCOc2cccc(CN3CCCCC3)c2)c2ccc(Cl)cc21 [Example 7, N-[3-[3-[(1-piperidinyl)methyl]phenoxy]propyl]-6-chloro-1,2-benzisothiazol-3-amine 1,1-dioxide, hydrochloride salt hemihydrate]
Kb [2, 4]: 31.6 nM

Compound: COc1ccc2c(c1)C(NCCCOc1cccc(CN3CCCCC3)c1)=NS2(=O)=O [Example 12, N-[3-[3-[(1-piperidinyl)methyl]phenoxy]propyl]-5-methoxy-1,2-benzisothiazol-3-amine 1,1-dioxide, 2/3 oxalate, ethanolate]
pA2 Value (apparent dissociation constant of the H2 antagonist) [2, 5]: 8.0

Compound: O=C1N=C(NCCCOc2cccc(CN3CCCCC3)c2)c2ccccc21 [Example 4, 3-[[3-[3-[(1-piperidinyl)methyl]phenoxy]propyl]amino]-1H isoindol-1-one, dihydrochloride, quarter hydrate]
Kb [2, 4]: 251 nM

Compound: CNC(=NC#N)NCCSCc1csc(N=C(N)N)n1 [tiotidine, reference compound]
inhibition in vivo at 4 mg/kg [1]: 16%

Compound: O=S1(=O)N=C(NCCCOc2cccc(CN3CCCCC3)c2)c2ccc(F)cc21 [Example 8, N-[3-[3-[(1-piperidinyl)methyl]phenoxy]propyl]-6-fluoro-1,2-benzisothiazol-3-amine 1,1-dioxide]
Kb [2, 4]: 20 nM

Compound: O=S1(=O)N=C(NCCCOc2cccc(CN3CCCCC3)c2)c2ccccc21 [Example 2, N-[3-[3-[(1-piperidinyl)methyl]phenoxy]propyl]-1,2-benzisothiazol-3-amine 1,1-dioxide]
Kb [2, 4]: 7.94 nM

Compound: CCCCCN(CCCCC)Cc1cccc(OCCCNC2=NS(=O)(=O)c3ccccc32)c1 [Example 37, N-[3-[3-[(dipentylamino)methyl]phenoxy]propyl]-1,2-benzisothiazol-3-amine 1,1-dioxide]
inhibition in vivo at 32 mg/kg [1]: 38%

Compound: NC(N)=Nc1nc(CSCCNC2=NS(=O)(=O)c3cscc32)cs1 [Example 40, [4-[[[2-[(Thieno[3,4-d]Isothiazol-3-yl)Amino]Ethyl]Thio]Methyl]-2-Thiazolyl]Guanidine-S',S'-Dioxide]
Kb [2, 3]: 100 nM

Compound: CC(C)CN(Cc1cccc(OCCCNC2=NS(=O)(=O)c3ccccc32)c1)CC(C)C [Example 31, N-[3-[3-[[bis(2-methylpropyl)amino]methyl]phenoxy]-propyl]-1,2-benzisothiazol-3-amine 1,1-dioxide]
Kb [2, 4]: 63.1 nM

Further lines, with some results ahead:

Kb [2, 3]: 1 nM
Compound: CN(C)Cc1ccc(CSCCNC2=NS(=O)(=O)c3cscc32)o1 [Example 39, N-[2-[[[5-[(Dimethylamino)Methyl]-2-Furanyl]Methyl]Thio]Ethyl]Thieno[3,4-d]Isothiazol-3-Amine-1,1-Dioxide]
inhibition in vivo at 16 mg/kg [1]: 87%

Kb [2, 4]: 6.31 nM
Compound: CCCCN(CCCC)Cc1cccc(OCCCNC2=NS(=O)(=O)c3ccccc32)c1 [Example 22, N-[3-[3-[(dibutylamino)methyl]phenoxy]propyl]-1,2-benzisothiazol-3-amine 1 ,1-dioxide, hydrochloride, hemihydrate]
inhibition in vivo at 4 mg/kg [1]: 42%
inhibition in vivo at 8 mg/kg ([1]; Dose 8 mg/kg): 62%
inhibition in vivo at 16 mg/kg [1]: 53%
inhibition in vivo at 32 mg/kg [1]: 68%

pA2 Value (apparent dissociation constant of the H2 antagonist) [2, 5]: 6.7
Compound: O=S1(=O)N=C(NCCCOc2cccc(CN3CCCCC3)c2)c2cc(Cl)c(Cl)cc21 [Example 9, N-[3-[3-[(1-piperidinyl)methyl]phenoxy]propyl]-5,6-dichloro-1,2-benzisothiazol-3-amine 1,1-dioxide, monohydrochloride salt]

Kb [2, 4]: 40.7 nM
Compound: O=S1(=O)N=C(NCCCOc2cccc(CN3CCSC3)c2)c2ccccc21 [Example 25, N-[3-[3-[(3-thiazolidinyl)methyl]phenoxy]propyl]-1,2-benzisothiazol-3-amine 1,1-dioxide, hydrochloride]
inhibition in vivo at 4 mg/kg [1]: 48%

Kb [2, 4]: 63.1 nM
Compound: O=S1(=O)N=C(NCCCOc2cccc(CNCc3ccccc3)c2)c2ccccc21 [Example 30, N-[3-[3-[(benzylamino)methyl]phenoxy]propyl]-1,2-benzisothiazol-3-amine1,1-dioxide, hydrochloride, quarter hydrate]

Kb [2, 4]: 79.4 nM
Compound: O=S1(=O)N=C(NCCCOc2cccc(CN3CCCCC3)c2)c2cc(Cl)ccc21 [Example 11, N-[3-[3-[(1-piperidinyl)methyl]phenoxy]propyl]-5-chloro-1,2-benzisothiazol-3-amine 1,1-dioxide, hydrochloride]

Kb [2, 4]: 20 nM
Compound: O=S1(=O)N=C(NCCCOc2cccc(CN3CCCCCCC3)c2)c2ccccc21 [Example 26, N-[3-[3-[(octahydro-1(2H)-azocinyl)methyl]phenoxy]-propyl]-1,2-benzisothiazol-3-amine 1,1-dioxide, hydrochloride]

Kb [2, 4]: 10 nM
Compound: CCCCCN(C)Cc1cccc(OCCCNC2=NS(=O)(=O)c3ccccc32)c1 [Example 34, N-[3-[3-[(methylpentylamino)methyl]phenoxy]propyl]-1,2-benzisothiazol-3-amine 1,1-dioxide]

pA2 Value (apparent dissociation constant of the H2 antagonist) [2, 5]: < 7.0
Compound: O=S1(=O)N=C(NCCCOc2cccc(CN3CCOCC3)c2)c2ccccc21 [Example 16, N-[3-[3-(4-morpholinylmethyl)phenoxy]propyl]-1,2-benzisothiazol-3-amine 1,1-dioxide, hydrochloride]
inhibition in vivo at 32 mg/kg [1]: 39%

Kb [2, 4]: 79.4 nM
Compound: CN(C)Cc1cccc(OCCCNC2=NS(=O)(=O)c3ccccc32)c1 [Example 21, N-[3-[3-[(dimethylamino)methyl]phenoxy]propyl]-1,2-benzisothiazol-3-amine 1,1-dioxide, hydrochloride, hemihydrate]
inhibition in vivo at 32 mg/kg [1]: 72%

Kb [2, 4]: 2 nM
Compound: NC(N)=Nc1nc(CSCCNC2=NS(=O)(=O)c3ccccc32)cs1 [Example 3, [4-[[[2-[(1,2-benzisothiazol-3yl)amino]ethyl]thio]methyl]-2-thiazolyl]guanidine S',S'-dioxide]

Kb [2, 4]: 50.1 nM
Compound: O=[N+]([O-])c1ccc2c(c1)S(=O)(=O)N=C2NCCCOc1cccc(CN2CCCCC2)c1 [Example 5, N-[3-[3-[(1-piperidinyl)methyl]phenoxy]propyl]-6-nitro-1,2-benzisothiazol-3-amine 1,1-dioxide, hydrochloride]

Kb [2, 4]: 69.2 nM
Compound: O=S1(=O)N=C(NCCCOc2cccc(CNCc3ccco3)c2)c2ccccc21 [Example 29, N-[3-[3-[[[(2-furanyl)methyl]amino]methyl]phenoxy]-propyl]-1,2-benzisothiazol-3amine 1,1-dioxide, hydrochloride]
inhibition in vivo at 32 mg/kg [1]: 50%

Kb [2, 3]: 14 nM
Compound: CCCCN(CCC)Cc1cccc(OCCCNC2=NS(=O)(=O)c3ccccc32)c1 [Example 35, N-[3-[3-[(butylpropylamino)methyl]phenoxy]propyl]-1,2-benzisothiazol-3-amine 1,1-dioxide]
inhibition in vivo at 32 mg/kg [1]: 55%

Kb [2, 4]: 20 nM
Compound: Nc1ccc2c(c1)S(=O)(=O)N=C2NCCCOc1cccc(CN2CCCCC2)c1 [Example 6, N-[3-[3-[(1-piperidinyl)methyl]phenoxy]propyl]-6-amino-1,2-benzisothiazol-3-amine 1,1-dioxide]

Kb [2, 4]: 200 nM
Compound: CCN(CC)Cc1cccc(OCCCNC2=NS(=O)(=O)c3ccccc32)c1 [Example 19, N-[3-[3-[(diethylamino)methyl]phenoxy]propyl]-1,2-benzisothiazol-3-amine 1 ,1-dioxide, hydrochloride]
inhibition in vivo at 16 mg/kg [1]: 52%
inhibition in vivo at 32 mg/kg [1]: 78%

Kb [2, 4]: 63.1 nM
Compound: CCCCNCc1cccc(OCCCNC2=NS(=O)(=O)c3ccccc32)c1 [Example 32, N-[3-[3-[(butylamino)methyl]phenoxy]propyl]-1,2-benzisothiazol-3-amine 1,1-dioxide, hydrochloride, hemihydrate]

— US4490527A, “Benzo-fused heterocyclic anti-ulcer agents” (American Home Products Corporation, priority 1983, dated 1984)
